Measurements taken from the OligoGym collection.
Where “and” joins values, the source holds several entries; their conditions need not be identical. Equal values may be shown once. After the bases stand the sugars from the 5' end (letter, count) and the backbone: PS all phosphorothioate, else s phosphorothioate and o phosphodiester by linkage. Methylation of C is not given here. e = 2'-O-(2-methoxyethyl) (MOE); k = constrained ethyl (cEt); d = 2'-deoxy (DNA); m = 2'-O-methyl

Target: HSD17B13
Details: ASO, HepaRG

| Sequence | target mRNA inhibition (1 µM) | further results |
| --- | --- | --- |
| TCTTGACAATGGTTGC (sugars k3 d10 k3, PS) | 77% | – |
| TCTTGACAATGGTTGC (sugars kkdddddddddkekek, PS) | 37% | – |
| TGAAAACTCAGCCAGC (sugars k3 d10 k3, PS) | 77% | target mRNA inhibition (0.02 µM): 15%; target mRNA inhibition (0.078 µM): 33%; target mRNA inhibition (0.313 µM): 65%; target mRNA inhibition (1.25 µM): 80%; target mRNA inhibition (5 µM): 95% |
| TGAAATCTTGTGTAAC (sugars k3 d10 k3, PS) | 43% | – |
| TGAACCGTATTCCCAA (sugars k3 d10 k3, PS) | 76% | target mRNA inhibition (0.02 µM): 26%; target mRNA inhibition (0.078 µM): 8%; target mRNA inhibition (0.313 µM): 59%; target mRNA inhibition (1.25 µM): 81%; target mRNA inhibition (5 µM): 93% |
| TGAAGCCACTGTGACG (sugars k3 d10 k3, PS) | 49% | – |
| TGAAGTTAGTATAGTT (sugars k3 d10 k3, PS) | 43% | – |
| TGAAGTTAGTATAGTT (sugars kkdddddddddkekek, PS) | 46% | – |
| TGACAATGGTTGATAG (sugars k3 d1 m1 d8 k3, PS) | 42% | – |
| TGACAATGGTTGCCAC (sugars k3 d10 k3, PS) | 40% | – |
| TGACAATGGTTGCCAC (sugars kkdddddddddkekek, PS) | 38% | – |
| TGACATAACTTCATAG (sugars k3 d10 k3, PS) | 51% | – |
| TGACATAGACATGTGT (sugars k3 d10 k3, PS) | 42% | – |
| TGACTGCTGCTAGTGC (sugars k3 d10 k3, PS) | 50% | – |
| TGAGAGTATAAATGGC (sugars k3 d10 k3, PS) | 67% | – |
| TGATAAAATAGGGTGC (sugars k3 d10 k3, PS) | 44% | – |
| TGATAATTTGGTGTCA (sugars k3 d10 k3, PS) | 3% | – |
| TGATACACCAATGCAG (sugars k3 d10 k3, PS) | 44% | – |
| TGATATTCTGTGGCAT (sugars k3 d10 k3, PS) | 69% | target mRNA inhibition (0.02 µM): 0%; target mRNA inhibition (0.078 µM): 0%; target mRNA inhibition (0.313 µM): 22%; target mRNA inhibition (1.25 µM): 64%; target mRNA inhibition (5 µM): 82% |
| TGATCTCTTAGCTGTG (sugars k3 d10 k3, PS) | 59% | – |
| TGATGTAGTGGGAGTC (sugars k3 d1 m1 d8 k3, PS) | 43% | – |
| TGATGTAGTGGGAGTC (sugars kkdddddddddkekek, PS) | 46% | – |

| Sequence | target mRNA inhibition (1 µM) | further results |
| --- | --- | --- |
| TGATTGAGTTCTCCAC (sugars k3 d10 k3, PS) | 48% | – |
| TGCAAAGTTAATAGGA (sugars k3 d10 k3, PS) | 43% | – |
| TGCAAGATTTACTTCC (sugars k3 d10 k3, PS) | 45% | – |
| TGCAAGTTTATCAGTA (sugars k3 d10 k3, PS) | 70% | target mRNA inhibition (0.02 µM): 28%; target mRNA inhibition (0.078 µM): 32%; target mRNA inhibition (0.313 µM): 62%; target mRNA inhibition (1.25 µM): 86%; target mRNA inhibition (5 µM): 92% |
| TGCAGATTATTATGTG (sugars k3 d10 k3, PS) | 38% | – |
| TGCATAAGAGATGAGT (sugars k3 d10 k3, PS) | 19% | – |
| TGCATCTTAAGATACC (sugars k3 d10 k3, PS) | 81% | – |
| TGCATTAATGCCACCC (sugars k3 d10 k3, PS) | 22% | – |
| TGCCAAACCAATGTTT (sugars k3 d10 k3, PS) | 32% | – |
| TGCCAAACCAATGTTT (sugars kkdddddddddkekek, PS) | 61% | – |
| TGCCAACACTAATCTC (sugars k3 d10 k3, PS) | 30% | – |
| TGCCTGCTGAAACTTG (sugars k3 d10 k3, PS) | 31% | – |
| TGCTAAAAGCTCACCA (sugars k3 d10 k3, PS) | 49% | – |
| TGCTAGTGCCAAACCA (sugars k3 d10 k3, PS) | 78% | target mRNA inhibition (0.02 µM): 3%; target mRNA inhibition (0.078 µM): 9%; target mRNA inhibition (0.313 µM): 49%; target mRNA inhibition (1.25 µM): 58%; target mRNA inhibition (5 µM): 89% |
| TGCTGGAACAATATGG (sugars k3 d10 k3, PS) | 36% | – |
| TGGAAACATGCTTGGC (sugars k3 d10 k3, PS) | 62% | – |
| TGGAAGATTAATCATA (sugars k3 d10 k3, PS) | 12% | – |
| TGGAATGCTACTTGAA (sugars k3 d9 k3 e1, PS) | 57% | – |
| TGGATTACATACAAGA (sugars k3 d10 k3, PS) | 68% and 50% | target mRNA inhibition (0.02 µM): 0%; target mRNA inhibition (0.078 µM): 0%; target mRNA inhibition (0.313 µM): 21%; target mRNA inhibition (1.25 µM): 58%; target mRNA inhibition (5 µM): 87% |
| TGGCATGGCTACAGAT (sugars k3 d1 m1 d8 k3, PS) | 57% | – |
| TGGCATGGCTACAGAT (sugars k3 d9 k3 e1, PS) | 68% | target mRNA inhibition (0.02 µM): 26%; target mRNA inhibition (0.078 µM): 22%; target mRNA inhibition (0.313 µM): 39%; target mRNA inhibition (1.25 µM): 75%; target mRNA inhibition (5 µM): 70% |
| TGGCATGGCTACAGAT (sugars k3 d10 k3, PS) | 57% | – |

| Sequence | target mRNA inhibition (1 µM) | further results |
| --- | --- | --- |
| TGGCTACAGATTGGAA (sugars k3 d10 k3, PS) | 55% | – |
| TGGGACCAAGGATATA (sugars k3 d1 m1 d8 k3, PS) | 51% | – |
| TGGGACCAAGGATATA (sugars k3 d9 k3 e1, PS) | 55% | – |
| TGGGACCAAGGATATA (sugars k3 d10 k3, PS) | 20% | – |
| TGGGATAGTGGAGGAA (sugars k3 d10 k3, PS) | 13% | – |
| TGGTAACGGTGATCAA (sugars k3 d9 k3 e1, PS) | 35% | – |
| TGGTAAGGAGTAGTGG (sugars k3 d10 k3, PS) | 34% | – |
| TGGTGAACCCAGTATT (sugars k3 d10 k3, PS) | 0% | – |
| TGGTTCAGTCCTTGTG (sugars k3 d10 k3, PS) | 50% | – |
| TGTAAAGTTTGTTAGA (sugars k3 d10 k3, PS) | 35% | – |
| TGTAATAGCCAGTACA (sugars k3 d1 m1 d8 k3, PS) | 40% | – |
| TGTAATAGCCAGTACA (sugars k3 d10 k3, PS) | 46% | – |
| TGTACAGTAGGCAGTT (sugars k3 d10 k3, PS) | 75% | – |
| TGTATCTTATAAGACT (sugars k3 d10 k3, PS) | 45% | – |
| TGTATTTCGCTACTGT (sugars k3 d10 k3, PS) | 76% | target mRNA inhibition (0.02 µM): 12%; target mRNA inhibition (0.078 µM): 18%; target mRNA inhibition (0.313 µM): 46%; target mRNA inhibition (1.25 µM): 80%; target mRNA inhibition (5 µM): 90% |
| TGTCAGACCTCTGTGA (sugars k3 d10 k3, PS) | 0% | – |
| TGTCATAAAGGTGGGA (sugars k3 d10 k3, PS) | 48% | – |
| TGTCCACCTTTAAATG (sugars k3 d10 k3, PS) | 29% | – |
| TGTCCCAGCATTATTC (sugars k3 d10 k3, PS) | 31% | – |
| TGTCCTAGGATGTTGA (sugars k3 d10 k3, PS) | 41% | – |
| TGTGAAGAGCTGGTAA (sugars k3 d10 k3, PS) | 41% | – |
| TGTGACGATGTGGCCA (sugars k3 d10 k3, PS) | 42% | – |
